Results taken from US20100291009A1, “PREPARATION COMPRISING CHROMAN-2-ONE DERIVATIVES” (Merck Patent Gesellschaft Mit Beschrankter Haftung, priority 2008, published 2010).

Molecular target: tyrosinase from fungi
Test: Tyrosinase assay (L-DOPA as substrate)
Format: biochemical
Conditions: tyrosinase from fungi (16U), phosphate buffer pH 6.8, 25° C., optical density at 470 nm; for IC50: read-out: IC50 (concentration of the test compound at which 50% of the tyrosinase activity is inhibited)
Method: The action of the compounds I or Ia as skin lighteners is tested through their ability to inhibit the enzyme tyrosinase and thus to suppress melanin synthesis.
The inhibiting action of the compounds of the formula I or Ia against tyrosinase is assessed using tyrosinase from fungi and L-DOPA as substrate.
The compounds, as described in Examples 1 to 3 and the comparative compounds of Examples 10 and 11, and L-dopa are pre-incubated for 10 minutes at 25° C. in phosphate buffer (pH 6.8), and tyrosinase from fungi (16U) (Fluka) is subsequently added. The optical density of the samples is measured at 470 nm against a negative control (without active compound). Kojic acid is likewise tested as tyrosinase reference, i.e. positive control.
The results are shown in the following table, expressed in the IC50 value (the concentration of the test compound at which 50% of the tyrosinase activity is inhibited).

Row | SMILES | IC50 | IC50 (concentration of the test compound at which 50% of the tyrosinase activity is inhibited)
1 | Cc1cc(O)c(C)c2c1OC(=O)CC2(C)C [Example 10, 6-hydroxy-4,4,5,8-tetramethylchroman-2-one] |  | No inhibition
2 | Cc1c(C)c2c(c(C)c1O)C(C)(C)CC(=O)O2 [Example 11, 6-hydroxy-4,4,5,7,8-pentamethylchroman-2-one] |  | No inhibition
3 | O=c1cc(CO)occ1O [Kojic acid] | 12 µM | 

Second part, the compound after the results:

Row | IC50 | IC50 (concentration of the test compound at which 50% of the tyrosinase activity is inhibited) | SMILES
4 | 336 µM |  | CCc1cc2c(cc1O)OC(=O)CC2 [6-Ethyl-7-hydroxychroman-2-one, 6-ethyl-7-hydroxychroman-2-one]
5 | 25 µM |  | CCCCCCc1cc2c(cc1O)OC(=O)CC2 [6-Hexyl-7-hydroxychroman-2-one, 6-hexyl-7-hydroxychroman-2-one]
6 | 1000 µM |  | O=C1CCc2ccc(O)cc2O1 [7-Hydroxychroman-2-one, 7-hydroxychroman-2-one]
